In ChEMBL document CHEMBL1201862, “PubChem BioAssay data set” (2004) one finds IC50 data, which are given here for two compounds.

The structures appear in SMILES notation. Calls of active or inactive are those of the source. No stated cut-off is given here; in the data, actives have a measured IC50 and inactives only a lower limit.

In this assay the target is Envelope glycoprotein gp160 (Human immunodeficiency virus 1, UniProt Q6QLK5). The assay is described as follows: cell-free HIV fusion peptide-binding blockers – biochemical, uHTS, fluorescence dequenching, […] (AID 1986).
Chain of Envelope glycoprotein gp160 (Q6QLK5 whole entry, the tested form may be a part): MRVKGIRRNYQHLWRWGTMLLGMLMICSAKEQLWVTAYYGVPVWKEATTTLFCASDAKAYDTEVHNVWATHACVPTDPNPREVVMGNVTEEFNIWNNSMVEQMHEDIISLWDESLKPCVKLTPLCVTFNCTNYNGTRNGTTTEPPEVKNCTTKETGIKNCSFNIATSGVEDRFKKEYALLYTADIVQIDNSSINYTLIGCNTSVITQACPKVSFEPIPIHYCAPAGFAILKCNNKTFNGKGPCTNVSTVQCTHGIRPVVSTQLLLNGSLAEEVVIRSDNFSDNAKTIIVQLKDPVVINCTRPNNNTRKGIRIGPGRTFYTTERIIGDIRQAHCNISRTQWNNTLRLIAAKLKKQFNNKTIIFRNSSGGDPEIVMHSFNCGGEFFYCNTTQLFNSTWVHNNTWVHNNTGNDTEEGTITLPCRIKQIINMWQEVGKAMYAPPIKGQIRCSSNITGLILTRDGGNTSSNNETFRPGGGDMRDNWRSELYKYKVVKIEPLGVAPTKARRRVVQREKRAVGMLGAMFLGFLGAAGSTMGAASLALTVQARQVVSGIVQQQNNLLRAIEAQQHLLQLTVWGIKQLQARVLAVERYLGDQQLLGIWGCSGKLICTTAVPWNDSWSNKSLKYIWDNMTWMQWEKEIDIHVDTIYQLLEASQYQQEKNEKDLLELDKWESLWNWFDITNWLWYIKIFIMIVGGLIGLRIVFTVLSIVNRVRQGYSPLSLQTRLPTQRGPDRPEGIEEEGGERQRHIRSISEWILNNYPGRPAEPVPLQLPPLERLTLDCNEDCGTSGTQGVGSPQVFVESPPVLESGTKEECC

Usually IC50 stands for the concentration needed to halve the response being measured. In the case of `CCN1C(=O)/C(=C\c2ccc(-c3ccc([N+](=O)[O-])cc3OC)o2)S/C1=N\c1cccc(C(=O)O)c1`, the 50% inhibitory concentration (IC50) is 29.4 µM (active).
The figure for `O=C(O)c1cc(N2N=C(C(F)(F)F)/C(=C/C=C/c3ccco3)C2=O)ccc1Cl` is 8.25 µM (active).
